Series [1] addresses T1, PI3Kα E545K (Homo sapiens, UniProt P42336, E545K). Kind of series: PI3Kα E545K mutant in vitro cell based assay, MDA-MB-361 cells. Particulars: MDA-MB-361 cell line, 0% FBS, no insulin, 3 hours treatment. The arrangement: MDA-MB-361 (ATCC-HTB-27) cell line (PI3Kα E545K); host or cells: MDA-MB-361. An outline of the steps:
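Compound exposure lasted 3 hours, in duplicate 10-point 1:3 dilutions at 0.3% DMSO final, on overnight-attached MDA-MB-361 cells carrying PI3Kα E545K in insulin-free, 0% FBS MEM. Lysates read by SureFire AlphaLISA. Relative IC50 from 4-parameter logistic fit versus DMSO and 1 μM GDC-0032 controls.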

Series [2] is described as follows: Metabolic stability and intrinsic clearance in human liver microsomes (MICS). The class given is in vitro ADME. Conditions: human, microsomes, pH 7.4. An outline of the steps: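 Parent depletion by LC-MS/MS, run in duplicate, gave in vitro t1/2 from the slope of ln(% remaining) versus time, converted to CLint (μL/min/mg protein). Incubations: 1 μM compound, microsomes at 0.5 mg/mL, pH 7.4 phosphate, 37° C, ±1 mM NADPH, timepoints 0.5, 5, 15, 30, 60 min.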
Background: Microsomes from liver hold many membrane-bound enzymes, among them those of drug oxidation.

The target in series [3] is T1, PI3Kα E545K. Description: PI3Kα E545K mutant in vitro cell based assay, MCF-7 cells. Particulars: MCF-7 cell line, 0% FBS, 3 hours treatment. The text has this:
PI3K-Alpha Kinase (PI3Kα) Activity: Wild-Type PI3Kα, H1047R Mutant PI3Kα, and E545K Mutant PI3Kα In Vitro Cell Based Assays and Determination of IC50 Values for Inhibitors
The MDA-MB-453 (ATCC-HTB-131) cell line (PI3Kα H1047R) and MCF-7 (ATCC-HTB-22) cell line (PI3Kα E545K), MDA-MB-361 (ATCC-HTB-27) cell line (PI3Kα E545K), and SKBR3 (ATCC-HTB-30) cell line (wild type PI3Kα) were obtained from the American Type Culture Collection (Manassas, VA). MDA-MB-453 cells were maintained in Dulbecco's Modified Eagle Media (DMEM, Gibco 12430) supplemented with 10% Fetal Bovine Serum, heat inactivated (FBS HI, Gibco 10082), 1× non-essential amino acids (NEAA, Gibco 11140), 1 mM sodium pyruvate (Gibco 11360) and 1× Anti-Anti (Gibco 15240). MCF-7 cells were maintained in Minimum Essential Media (MEM) (Gibco 11095) supplemented with 10% Fetal Bovine Serum, heat inactivated (FBS HI, Gibco 10082), 1× non-essential amino acids (NEAA, Gibco 11140), 1 mM sodium pyruvate (Gibco 11360), 1× Anti-Anti (Gibco 15240) and 10 μg/mL human insulin (Sigma I 9278). MDA-MB-361 cells were maintained in Dulbecco's Modified Eagle Media (DMEM, Gibco 12430) supplemented with 20% Fetal Bovine Serum, heat inactivated (FBS HI, Gibco 10082), 1× non-essential amino acids (NEAA, Gibco 11140), 1 mM sodium pyruvate (Gibco 11360) and 1× Anti-Anti (Gibco 15240). SKBR3 cells were maintained in McCoy's 5A (Gibco 16600) supplemented with 10% Fetal Bovine Serum, heat inactivated (FBS HI, Gibco 10082), and 1× Anti-Anti (Gibco 15240). Cultures were maintained in a humidified incubator at 37° C. under 5% CO2/95% air.
For compound testing in 0% FBS, MDA-MB-453, MCF-7 and SKBR3 cells were seeded at a density of 1.5×10^4, 1.0×10^4, and 1.0×10^4 cells, respectively, per well in white 384-well plates in 20 μl of Minimum Essential Media (MEM) assay media with 1×NEAA, 1 mM sodium pyruvate, and 1 μg/mL human insulin (Sigma 19278) (Assay Medium); while MDA-MB-361 cells were seeded at a density of 1.5×10^4 per well in white 384-well plates in 20 μl Assay Medium without insulin. After plating, cells were allowed to attach overnight. Compounds dissolved in 10 mM stock solutions in DMSO were serially diluted 1:3 in DMSO to generate a 10-point dilution series and plated using an acoustic liquid handler system (Echo 550 Series Liquid Handler, Labcyte). A 5× intermediate compound dilution plate in MEM with 1×NEAA and 1 mM sodium pyruvate (150 μM starting compound concentration in 1.5% DMSO) was then prepared. Five μl of the intermediate serially diluted compounds were added to the cell plate to final concentrations ranging from […] in 0.3% DMSO. 0.3% DMSO alone was used to establish the maximum (MAX) signal and GDC-0032 at a final concentration of 1 μM was used as a reference compound for the minimum (MIN) signal. After 3 hours treatment, the medium was removed, and the cells were lysed in 10 μL of 1× SureFire Lysis buffer with shaking for 10 minutes at room temperature. The Acceptor Mix (Reaction Buffer 1+Reaction Buffer 2+Activation Buffer+SureFire Ultra Acceptor Beads) was prepared by diluting Activation buffer 25-fold in combined Reaction Buffer 1 and Reaction Buffer 2.
The Acceptor beads were diluted 50-fold in the combined Reaction Buffers. Five μL of Acceptor Mix was added to each well, the plate was sealed and covered with foil and incubated for 1 hour at room temperature. The Donor Mix (dilution buffer+SureFire Ultra Donor Beads) was prepared by diluting Donor Beads 50-fold in dilution buffer. Five μL of the Donor Mix was added to each well and the plate sealed and covered with foil and incubated for 1-2 hours at room temperature in the dark. The plates were read on a Neo2 plate reader instrument from Biotek using standard AlphaLisa settings.
Compounds were tested in duplicate and the % inhibition at each compound concentration was used to generate two dose response curves. One IC50 was generated using average % inhibition at each compound concentration. […]

Some results are limits rather than exact numbers.

T1 sequence (P42336 whole entry E545K): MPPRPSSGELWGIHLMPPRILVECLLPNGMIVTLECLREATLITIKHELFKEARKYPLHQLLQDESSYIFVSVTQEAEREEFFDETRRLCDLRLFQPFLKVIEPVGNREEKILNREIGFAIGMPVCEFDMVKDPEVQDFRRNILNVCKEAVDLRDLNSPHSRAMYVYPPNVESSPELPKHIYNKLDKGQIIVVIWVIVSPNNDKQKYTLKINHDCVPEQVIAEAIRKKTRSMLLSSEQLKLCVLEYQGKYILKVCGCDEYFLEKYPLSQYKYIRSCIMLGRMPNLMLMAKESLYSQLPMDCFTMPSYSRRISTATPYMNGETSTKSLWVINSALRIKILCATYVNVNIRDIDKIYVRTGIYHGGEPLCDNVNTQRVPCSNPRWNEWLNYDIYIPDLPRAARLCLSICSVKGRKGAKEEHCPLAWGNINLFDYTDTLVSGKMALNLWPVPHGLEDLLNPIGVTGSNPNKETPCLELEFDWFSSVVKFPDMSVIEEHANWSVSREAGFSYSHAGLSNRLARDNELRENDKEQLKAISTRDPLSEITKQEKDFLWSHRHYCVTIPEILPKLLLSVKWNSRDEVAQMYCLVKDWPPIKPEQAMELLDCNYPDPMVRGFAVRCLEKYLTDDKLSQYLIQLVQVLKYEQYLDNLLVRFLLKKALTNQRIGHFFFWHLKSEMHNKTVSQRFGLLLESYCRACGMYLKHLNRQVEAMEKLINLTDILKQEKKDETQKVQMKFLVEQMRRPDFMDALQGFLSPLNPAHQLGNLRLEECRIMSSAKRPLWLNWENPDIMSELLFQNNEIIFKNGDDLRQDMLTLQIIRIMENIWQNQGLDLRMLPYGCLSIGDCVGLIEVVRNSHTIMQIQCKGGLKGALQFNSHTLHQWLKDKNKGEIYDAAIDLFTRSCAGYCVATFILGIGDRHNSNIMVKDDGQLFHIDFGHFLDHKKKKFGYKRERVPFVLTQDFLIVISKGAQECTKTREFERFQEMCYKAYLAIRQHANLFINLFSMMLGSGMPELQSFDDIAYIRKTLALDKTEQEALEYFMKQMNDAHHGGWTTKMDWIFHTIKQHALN
T1 sequence (P27986 whole entry partner): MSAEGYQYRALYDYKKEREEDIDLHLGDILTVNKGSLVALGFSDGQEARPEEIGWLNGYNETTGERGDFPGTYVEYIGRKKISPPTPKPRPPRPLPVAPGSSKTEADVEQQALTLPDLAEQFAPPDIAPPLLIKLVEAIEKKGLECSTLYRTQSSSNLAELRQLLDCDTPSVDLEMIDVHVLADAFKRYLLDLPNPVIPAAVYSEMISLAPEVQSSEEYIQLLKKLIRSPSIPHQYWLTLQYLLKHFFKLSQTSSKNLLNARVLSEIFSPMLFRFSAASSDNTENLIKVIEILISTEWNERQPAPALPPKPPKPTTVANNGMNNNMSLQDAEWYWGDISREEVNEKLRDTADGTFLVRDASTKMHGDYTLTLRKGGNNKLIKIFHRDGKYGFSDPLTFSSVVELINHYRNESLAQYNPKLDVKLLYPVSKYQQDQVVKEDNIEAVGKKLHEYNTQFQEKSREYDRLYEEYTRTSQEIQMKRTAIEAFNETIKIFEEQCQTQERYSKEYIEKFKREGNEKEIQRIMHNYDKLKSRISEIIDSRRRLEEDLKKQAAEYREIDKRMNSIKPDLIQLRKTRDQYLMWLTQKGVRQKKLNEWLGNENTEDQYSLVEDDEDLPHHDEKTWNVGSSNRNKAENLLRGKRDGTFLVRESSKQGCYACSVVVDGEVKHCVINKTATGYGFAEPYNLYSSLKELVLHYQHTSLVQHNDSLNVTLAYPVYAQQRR

With `Cc1cc([C@@H](C)Oc2ccc(F)c(F)c2S(N)(=O)=O)c2oc(-c3cnn(C)c3)c(C)c(=O)c2c1` [Example 110C, 6-[(1R)-1-[3,6-Dimethyl-2-(1-methylpyrazol-4-yl)-4-oxo-chromen-8-yl]ethoxy]-2,3-difluoro-benzenesulfonamide], the IC50 against PI3Kα E545K [1] and against PI3Kα E545K [3] was less than 500 nM throughout. In addition, the microsomal CLint – broadly, the capacity of the preparation to metabolise the compound, expressed as a volume cleared per time – at 1 μM in series [2] is less than 50 µL/min/mg.
Regarding `Cc1cc([C@@H](C)Oc2ccc(Cl)nc2C(N)=O)c2oc(-c3cncc(F)c3)c(C)c(=O)c2c1` [Example 20A, 6-Chloro-3-[(1R)-1-[2-(5-fluoro-3-pyridyl)-3,6-dimethyl-4-oxo-chromen-8-yl]ethoxy]pyridine-2-carboxamide], the microsomal CLint at 1 μM in series [2] is less than 50 µL/min/mg. In addition, the IC50 (in general, the concentration at which inhibition is half-maximal) on PI3Kα E545K [3] is less than 500 nM.
The like results for `Cc1cc([C@@H](C)Oc2ccc(Cl)nc2C(N)=O)c2oc(-c3ccc4nn(C)cc4c3F)c(C)c(=O)c2c1` [Example 46C, 6-Chloro-3-[(1R)-1-[2-(4-fluoro-2-methyl-indazol-5-yl)-3,6-dimethyl-4-oxo-chromen-8-yl]ethoxy]pyridine-2-carboxamide] were, in that order, less than 50 µL/min/mg and less than 500 nM.
The corresponding values for `Cc1cc([C@@H](C)Oc2ccc(F)nc2S(N)(=O)=O)c2oc(C3CC3)c(C)c(=O)c2c1` [Example 109C, 3-[(1R)-1-(2-Cyclopropyl-3,6-dimethyl-4-oxo-chromen-8-yl)ethoxy]-6-fluoro-pyridine-2-sulfonamide] are less than 50 µL/min/mg and less than 500 nM.
On to `Cc1cc([C@@H](C)Oc2ccc(Cl)nc2S(N)(=O)=O)c2oc(-c3ccc4nc(C)cn4n3)c(C)c(=O)c2c1` [Example 19C, 6-Chloro-3-[(1R)-1-[3,6-dimethyl-2-(2-methylimidazo[1,2-b]pyridazin-6-yl)-4-oxo-chromen-8-yl]ethoxy]pyridine-2-sulfonamide], for which the microsomal CLint at 1 μM in series [2] is less than 50 µL/min/mg. The IC50 on PI3Kα E545K [3] was less than 500 nM.
The corresponding values for `Cc1cc([C@@H](C)Oc2ccc(Cl)nc2C(N)=O)c2oc(-c3cc4cn(C)nc4cn3)c(C)c(=O)c2c1` [Example 128A, 6-Chloro-3-[(1R)-1-[3,6-dimethyl-2-(2-methylpyrazolo[3,4-c]pyridin-5-yl)-4-oxo-chromen-8-yl]ethoxy]pyridine-2-carboxamide] are less than 50 µL/min/mg and less than 500 nM.
Take `Cc1cc([C@@H](C)Oc2ccc(Cl)nc2S(N)(=O)=O)c2oc(C3CC3CO)c(C)c(=O)c2c1` (single isomer, unassigned) [Example 126C]: the IC50 against PI3Kα E545K [1] and against PI3Kα E545K [3] was less than 500 nM each time.
With `Cc1cc([C@@H](C)Oc2ccc(F)cc2S(N)(=O)=O)c2oc(C3CC3)c(C)c(=O)c2c1` [Example 107C, 2-[(1R)-1-(2-Cyclopropyl-3,6-dimethyl-4-oxo-chromen-8-yl)ethoxy]-5-fluoro-benzenesulfonamide], the IC50 at PI3Kα E545K [1] and on PI3Kα E545K [3] was less than 500 nM throughout.
For the compound `Cc1cc([C@@H](C)Oc2ccc(Cl)nc2C(N)=O)c2oc(-c3ccc4nn([C@H]5C[C@@H](O)C5)cc4c3)c(C)c(=O)c2c1` [Example 133C, 6-Chloro-3-[(1R)-1-[2-[2-(3-hydroxycyclobutyl)indazol-5-yl]-3,6-dimethyl-4-oxo-chromen-8-yl]ethoxy]pyridine-2-carboxamide], the IC50 against PI3Kα E545K [1] and at PI3Kα E545K [3] was less than 500 nM in each case.
On to `CONC(=O)c1ncccc1O[C@H](C)c1cc(C)cc2c(=O)c(C)c(-c3ccc4nn(C)cc4c3)oc12` [Example 23A, 3-[(1R)-1-[3,6-Dimethyl-2-(2-methylindazol-5-yl)-4-oxo-chromen-8-yl]ethoxy]-N-methoxy-pyridine-2-carboxamide], for which, in series [2], the microsomal CLint at 1 μM is less than 50 µL/min/mg. In addition, the IC50 on PI3Kα E545K [3] is less than 500 nM.
For the compound `Cc1cc([C@@H](C)Oc2ccc(Cl)nc2C(N)=O)c2oc(-c3ccc4nn(CC5(O)CC5)cc4c3)c(C)c(=O)c2c1` [Example 130C, 6-Chloro-3-[(1R)-1-[2-[2-[(1-hydroxycyclopropyl)methyl]indazol-5-yl]-3,6-dimethyl-4-oxo-chromen-8-yl]ethoxy]pyridine-2-carboxamide], the IC50 against PI3Kα E545K [1] and at PI3Kα E545K [3] was less than 500 nM each time.
For the compound `Cc1cc([C@@H](C)Oc2ccc(Cl)nc2S(N)(=O)=O)c2oc(-c3ccc4nn(C)cc4c3)c(C)c(=O)c2c1` [Example 16A, 6-Chloro-3-[(1R)-1-[3,6-dimethyl-2-(2-methylindazol-5-yl)-4-oxo-chromen-8-yl]ethoxy]pyridine-2-sulfonamide], the IC50 at PI3Kα E545K [1] and against PI3Kα E545K [3] was less than 500 nM throughout.
In the case of `Cc1cc([C@@H](C)Oc2ccc(Cl)nc2C(N)=O)c2oc(-c3ccc4nn(C)cc4n3)c(C)c(=O)c2c1` [Example 141A, 6-Chloro-3-[(1R)-1-[3,6-dimethyl-2-(2-methylpyrazolo[4,3-b]pyridin-5-yl)-4-oxo-chromen-8-yl]ethoxy]pyridine-2-carboxamide], in series [2], the microsomal CLint at 1 μM was less than 50 µL/min/mg. On PI3Kα E545K [3], this compound gave an IC50 of less than 500 nM.
Take `Cc1cc([C@@H](C)Oc2ccc(Cl)nc2C(N)=O)c2oc(-c3ccc4c(c3)OCC(=O)N4C)c(C)c(=O)c2c1` [Example 119A, 6-Chloro-3-[(1R)-1-[3,6-dimethyl-2-(4-methyl-3-oxo-1,4-benzoxazin-7-yl)-4-oxo-chromen-8-yl]ethoxy]pyridine-2-carboxamide]: the IC50 against PI3Kα E545K [1] and at PI3Kα E545K [3] was less than 500 nM each time.
With `Cc1cc([C@@H](C)Oc2ccc(F)c(F)c2C(N)=O)c2oc(-c3ccc4nn(C)cc4c3)c(C)c(=O)c2c1` [Example 17A, 6-[(1R)-1-[3,6-Dimethyl-2-(2-methylindazol-5-yl)-4-oxo-chromen-8-yl]ethoxy]-2,3-difluoro-benzamide], the IC50 against PI3Kα E545K [1] and against PI3Kα E545K [3] was less than 500 nM throughout.
Regarding `Cc1cc([C@@H](C)Oc2ccc(Cl)cc2S(N)(=O)=O)c2oc(-c3ccccc3)c(C)c(=O)c2c1` [Example 98C, 5-Chloro-2-[(1R)-1-(3,6-dimethyl-4-oxo-2-phenyl-chromen-8-yl)ethoxy]benzenesulfonamide], the concentration for half-maximal inhibition (IC50) on PI3Kα E545K [1] and against PI3Kα E545K [3] was less than 500 nM throughout.
Take `Cc1cc([C@@H](C)Oc2ccc(Cl)nc2C(N)=O)c2oc(-c3ccc4nn(CCO)cc4c3)c(C)c(=O)c2c1` [Example 129C, 6-Chloro-3-[(1R)-1-[2-[2-(2-hydroxyethyl)indazol-5-yl]-3,6-dimethyl-4-oxo-chromen-8-yl]ethoxy]pyridine-2-carboxamide]: the IC50 at PI3Kα E545K [1] and on PI3Kα E545K [3] was less than 500 nM throughout.

The record behind these values is patent US20240182460A1, “ALLOSTERIC CHROMENONE INHIBITORS OF PHOSPHOINOSITIDE 3-KINASE (PI3K) FOR THE TREATMENT OF DISEASE” (PETRA PHARMA CORPORATION, priority 2022, published 2024).
